Reference: patent publication US20210255193A1, “LYSINE REACTIVE PROBES AND USES THEREOF” (The Scripps Research Institute, priority 2017, published 2021)

Legend:
[1] = molecular target: T1, TARDBP TAR DNA-binding protein 43 (Homo sapiens, UniProt Q13148); experiment: competitive isoTOP-ABPP; settings: for isoTOP-ABPP ratio (R) at liganded lysine Q13148_K114 / R value (DMSO/fragment) for probe 1 labeling / isoTOP-ABPP reactivity ratio at lysine Q13148_K114: 50 uM, in vitro; for isoTOP-ABPP ratio (R) at liganded lysine Q13148_K114: sol, 231; for R value (DMSO/fragment) for probe 1 labeling: Q13148_K114; for R value (DMSO/fragment) for probe 1 labeling / isoTOP-ABPP reactivity ratio at lysine Q13148_K114: 231 sol
T1 construct: isoTOP-ABPP experiments performed in cell lysates (in vitro); endogenous in cells; host or cells: soluble proteome of human cancer cell lines (MDA-MB-231, Ramos, Jurkat)
Method in brief: (§1)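 Competition format: fragment (50 μM activated ester, 100 μM guanidinylating agent) versus vehicle in lysate, then lysine probe STP-alkyne at 0.1 mM for 1 h. Quantitation by light/heavy TEV-tag MS1 peak areas, reported as R.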

[2] = molecular target: T2, PSMC6 26S protease regulatory subunit 10B (Homo sapiens, UniProt P62333); experiment: competitive isoTOP-ABPP; type: binding; settings: for isoTOP-ABPP reactivity ratio at lysine P62333_K72 / isoTOP-ABPP ratio (R) at liganded lysine P62333_K72: 50 uM, in vitro; for isoTOP-ABPP reactivity ratio at lysine P62333_K72: 231 sol; for isoTOP-ABPP ratio (R) at liganded lysine P62333_K72: sol, 231
T2 construct: isoTOP-ABPP experiments performed in cell lysates (in vitro); endogenous in cells; host or cells: soluble proteome of human cancer cell lines (MDA-MB-231, Ramos, Jurkat)
Method in brief: as §1

[3] = test system: lysines in the human breast cancer cell MDA-MB-231 proteome; experiment: competitive isoTOP-ABPP, proteome-wide fragment reactivity; type: binding; settings: for proteome-wide reactivity: fragments 50-100 μM; for lysines reacted that showed negligible cross-reactivity with activated esters: human cell proteomes
Method: In vitro covalent fragment treatment for isoTOP-ABPP. All compounds were made up as solutions in DMSO (100×) and were used at a final concentration of 50 μM for activated esters and 100 μM for guanidinylating agents. For each profiling sample, 0.5 ml of lysate was treated with 5 μl of the 100× compound stock solution or 5 μl of DMSO. Samples were treated with activated esters for
STP-alkyne labeling and click chemistry. For concentration-dependent reactivity measurements by isoTOP-ABPP, 0.5 ml proteome aliquots were treated at ambient temperature with 1 mM STP-alkyne 1 (5 μl of 100 mM stock in DMSO) and 0.1 mM STP alkyne 1 (5 μl of 10 mM stock in DMSO), respectively. For competitive isoTOP-ABPP, after in vitro fragment treatment (detailed above), the samples were labeled for 1 h at ambient temperature with 0.1 mM STP-alkyne 1 (5 μl of 10 mM stock in DMSO). Samples were conjugated by copper-mediated azide-alkyne cycloaddition (CuAAC) to either the light (1 mM STP-alkyne or fragment treated) or heavy (0.1 mM STP-alkyne or DMSO treated) TEV tags (10 μl of 5 mM stocks in DMSO, final concentration=100 μM) using tris(2-carboxyethyl)phosphine hydrochloride
R value calculation and processing. The ratios of light and heavy MS1 peaks for each unique peptide were quantified with a CIMAGE software using default parameters (3 MS1 acquisitions per peak and signal to noise threshold set to 2.5). For reactivity measurements by isoTOP-ABPP, the R value was calculated from the ratio of MS1 peak areas, comparing the 1 mM STP alkyne sample (light TEV tag) with the 0.1 mM STP alkyne sample (heavy TEV tag). For competitive isoTOP-ABPP, the R value was calculated from the ratio of MS1 peak areas, comparing the DMSO treated sample (heavy TEV tag) with the compound treated sample (light TEV tag). […] Ratios for unique peptide entries are calculated for each experiment; overlapping peptides with the same modified lysine (for example, different charge states, MudPIT chromatographic steps or tryptic termini) are grouped together and the median ratio is reported as the final ratio (R). The peptide ratios reported by CIMAGE were further filtered to ensure the removal or correction of low-quality ratios in each individual data set. The quality filters applied were the following: removal of half tryptic peptides; for ratios with high standard deviations from the median (90% of the median or above) the lowest ratio was taken instead of the median; removal of peptides with R=20 and only a single MS2 event triggered during the elution of the parent ion; manual annotation of all the peptides with ratios of 20, removing any peptides with low quality elution profiles that remained after the previous curation steps (only done for competitive isoTOP-ABPP).
Cross-data processing for fragment screening. For compound treated samples, biological replicates of the same condition were averaged, if the standard deviation was below 60% of the mean; otherwise, for lysines with at least one R value <4 for a particular compound, the lowest value of the ratio set was taken. For lysines, where all R values for a particular compound were ≥4, the average was reported. For peptides containing several possible modified lysines, the lysine with the highest number of quantification events was used for analysis and the remaining, redundant peptides were reported as alternative modification sites. Peptides included in the aggregate dataset (those used for further bioinformatics and statistical analyses) were required to have been quantified in 2 experiments for competitive isoTOP-ABPP. Lysines were categorized as liganded, if they had at least one ratio R≥4 (hit fragments). For liganded lysines with R=20 for all liganding events, lysines were required to have been quantified with R=20 in two separate experiments and were further required to have been quantified with R<20 in one additional experiment. […]

Structure (SMILES): O=C(CCc1coc2cc(F)ccc2c1=O)Oc1ccc([N+](=O)[O-])cc1[N+](=O)[O-] [fragment 36, 2,4-Dinitrophenyl 3-(7-fluoro-4-oxo-4H-chromen-3-yl)propanoate]
- isoTOP-ABPP ratio (R) at liganded lysine Q13148_K114 [1]: 1.2

Structure (SMILES): Cn1cc(CC(=O)Oc2c(F)c(F)c(F)c(F)c2F)c2ccccc21 [fragment 22, Pentafluorophenyl 2-(1-methyl-1H-indol-3-yl)acetate]
- R value (DMSO/fragment) for probe 1 labeling [1]: 0.8

Structure (SMILES): O=C(ON1C(=O)CCC1=O)c1cc(C(F)(F)F)cc(C(F)(F)F)c1 [fragment 46, 3,5-Bis(trifluoromethyl)benzoic acid NHS ester]
- isoTOP-ABPP ratio, lysine P62333_K72 ([2]; 50 uM_231_sol_in vitro): 0.9

Structure (SMILES): NC(=O)c1cc(C(F)(F)F)cc(C(F)(F)F)c1 [fragment 51, reference compound]
- lysine reactivity ([3]; competition with probe 1 (100 μM)): No lysine reactivity was observed

Structure (SMILES): O=C(Oc1ccc([N+](=O)[O-])cc1[N+](=O)[O-])C(c1ccccc1)c1ccccc1 [fragment 30, 2,4-Dinitrophenyl 2,2-diphenylacetate]
- proteome-wide reactivity [3]: much greater proteome-wide reactivity

Structure (SMILES): O=C(CCc1cn(-c2ccccc2)nc1-c1ccccc1)Oc1ccc([N+](=O)[O-])cc1[N+](=O)[O-] [fragment 29, 2,4-Dinitrophenyl 3-(1,3-diphenyl-1H-pyrazol-4-yl)propanoate]
- proteome-wide reactivity [3]: much greater proteome-wide reactivity
- isoTOP-ABPP reactivity ratio at lysine P62333_K72 [2]: 20.0
- isoTOP-ABPP reactivity ratio at lysine Q13148_K114 [1]: 1.1

Structure (SMILES): CC(=O)Oc1ccc([N+](=O)[O-])cc1[N+](=O)[O-] [fragment 43, 2,4-Dinitrophenyl acetate]
- isoTOP-ABPP ratio (R) at liganded lysine P62333_K72 [2]: 1.9

Structure (SMILES): CC(C)(C)OC(=O)N=C(NC(=O)OC(C)(C)C)n1cccn1 [fragment 50, reference compound]
- lysines reacted that showed negligible cross-reactivity with activated esters [3]: 15
- isoTOP-ABPP ratio, lysine P62333_K72 ([2]; 100 uM_231_sol_in vitro): 1.3
- isoTOP-ABPP ratio, lysine Q13148_K114 ([1]; 100 uM_231_sol_in vitro): 1.2

Structure (SMILES): N#Cc1ccc(C(=O)Oc2ccc([N+](=O)[O-])cc2[N+](=O)[O-])cc1 [fragment 44, 2,4-Dinitrophenyl 4-cyanobenzoate]
- isoTOP-ABPP ratio, lysine Q13148_K114 ([1]; 50 uM_231_sol_in vitro): 20.0

Structure (SMILES): O=C(Oc1ccc([N+](=O)[O-])cc1[N+](=O)[O-])c1ccc(-c2ccccc2)cc1 [fragment 37, 2,4-Dinitrophenyl [1,1′-biphenyl]-4-carboxylate]
- isoTOP-ABPP ratio (R) at liganded lysine P62333_K72 [2]: 0.9
- isoTOP-ABPP ratio (R) at liganded lysine Q13148_K114 [1]: 1.3

Structure (SMILES): O=C(CCc1ccc2c(c1)OCO2)Oc1ccc([N+](=O)[O-])cc1[N+](=O)[O-] [fragment 45, 2,4-Dinitrophenyl 3-(benzo[d][1,3]dioxol-5-yl)propanoate]
- isoTOP-ABPP ratio, lysine Q13148_K114 ([1]; 50 uM_231_sol_in vitro): 20.0

Structure (SMILES): COC(=O)NC(=NC(=O)OCC1c2ccccc2-c2ccccc21)n1cccn1 [fragment 49, N-Methoxycarbonyl-N′-9-fluorenylmethoxycarbonyl-pyrazole-1-carboxamidine]
- lysines reacted that showed negligible cross-reactivity with activated esters [3]: 15
- isoTOP-ABPP ratio, lysine Q13148_K114 ([1]; 100 uM_231_sol_in vitro): 20.0

Structure (SMILES): O=C(Oc1c(F)c(F)c(F)c(F)c1F)C(c1ccccc1)c1ccccc1 [fragment 20, Pentafluorophenyl 2,2-diphenylacetate]
- proteome-wide reactivity [3]: limited reactivity across the proteome

Structure (SMILES): CCn1cc(C(=O)Oc2c(F)c(F)c(F)c(F)c2F)c(=O)c2ccc(C)nc21 [fragment 28, Pentafluorophenyl 1-ethyl-7-methyl-4-oxo-1,4-dihydro-1,8-naphthyridine-3-carboxylate]
- isoTOP-ABPP reactivity ratio at lysine P62333_K72 [2]: 20.0

Structure (SMILES): O=C(Oc1c(F)c(F)c(F)c(F)c1F)c1cc(C(F)(F)F)cc(C(F)(F)F)c1 [fragment 21, Pentafluorophenyl 3,5-bis(trifluoromethyl)benzoate]
- proteome-wide reactivity [3]: low proteome-wide reactivity
- R value (DMSO/fragment) for probe 1 labeling [1]: 0.9

Structure (SMILES): CC(C)(C)OC(=O)NCCCC(=O)Oc1ccc([N+](=O)[O-])cc1[N+](=O)[O-] [fragment 41, 2,4-Dinitrophenyl 4-((tert-butoxycarbonyl)amino)butanoate]
- isoTOP-ABPP ratio (R) at liganded lysine P62333_K72 [2]: 1.2

Structure (SMILES): O=C(Oc1c(F)c(F)c(F)c(F)c1F)C1CCN(C(=O)OCc2ccccc2)CC1 [fragment 24, 1-Benzyl 4-(pentafluorophenyl) piperidine-1,4-dicarboxylate]
- isoTOP-ABPP reactivity ratio at lysine Q13148_K114 [1]: 1.0

Structure (SMILES): Cn1cc(CC(=O)Oc2ccc([N+](=O)[O-])cc2[N+](=O)[O-])c2ccccc21 [fragment 32, 2,4-Dinitrophenyl 2-(1-methyl-1H-indol-3-yl)acetate]
- isoTOP-ABPP reactivity ratio at lysine P62333_K72 [2]: 1.4

Structure (SMILES): O=C(Oc1ccc([N+](=O)[O-])cc1[N+](=O)[O-])c1ccc(Oc2ccccc2)cc1 [fragment 39, 2,4-Dinitrophenyl 4-phenoxybenzoate]
- isoTOP-ABPP ratio (R) at liganded lysine P62333_K72 [2]: 1.1
- isoTOP-ABPP ratio (R) at liganded lysine Q13148_K114 [1]: 0.9
